In experiment [1] the test system is velvetleaf. The experiment in a line: Test A preemergence. In kind it is in vivo, Abutilon theophrasti. Particulars: 0 to 100 scale. From the text:
(§1) Seeds of plant species selected from barnyardgrass (Echinochloa crus-galli), kochia (Kochia scoparia), common ragweed (Ambrosia elation), Italian ryegrass (Lolium multiflorum), crabgrass, large (large crabgrass, Digitaria sanguinalis), foxtail, giant (giant foxtail, Setaria faberii), morningglory (Ipomoea spp.), pigweed (redroot pigweed, Amaranthus retroflexus), velvetleaf (Abutilon theophrasti), wheat (Triticum aestivum), and corn (Zea mays) were planted into a blend of loam soil and sand and treated preemergence with a directed soil spray using test chemicals formulated in a non-phytotoxic solvent mixture which included a surfactant.
(§2) At the same time, plants selected from these crop and weed species and also blackgrass (Alopecurus myosuroides), and galium (catchweed bedstraw, Galium aparine) were planted in pots containing the same blend of loam soil and sand and treated with postemergence applications of test chemicals formulated in the same manner. Plants ranged in height from 2 to 10 cm and were in the one- to two-leaf stage for the postemergence treatment. Treated plants and untreated controls were maintained in a greenhouse for approximately 10 days, after which time all treated plants were compared to untreated controls and visually evaluated for injury. Plant response ratings, summarized in Table A, are based on a 0 to 100 scale where 0 is no effect and 100 is complete control. A dash (-) response means no test result.

The test system of experiment [2] is crabgrass, large. Kind of experiment: Test A postemergence. In kind it is in vivo, Digitaria sanguinalis.
Text: as §1, §2

The test system of experiment [3] is foxtail, giant. The experiment in a line: Test A postemergence. In kind it is in vivo, Setaria faberii.
Text: as §1, §2

Experiment [4] has as its system pigweed. Kind of experiment: Test A preemergence. Particulars: 0 to 100 scale. In kind it is in vivo, Amaranthus retroflexus.
Text: as §1, §2

Experiment [5] deals with velvetleaf. Kind of experiment: Test A postemergence. In kind it is in vivo, Abutilon theophrasti.
Text: as §1, §2

Experiment [6] deals with barnyardgrass. Kind of experiment: Test A preemergence. Particulars: 0 to 100 scale. In kind it is in vivo, Echinochloa crus-galli.
Text: as §1, §2

Experiment [7] relates to corn. The experiment in a line: Test A postemergence. In kind it is in vivo, Zea mays.
Text: as §1, §2

Experiment [8] concerns morningglory. The experiment in a line: Test A preemergence. The experiment is classed as in vivo, Ipomoea spp. Particulars: 0 to 100 scale.
Text: as §1, §2

Experiment [9] relates to wheat. The experiment in a line: Test A preemergence. The experiment is classed as in vivo, Triticum aestivum. The note with it: 0 to 100 scale.
Text: as §1, §2

In experiment [10] the test system is crabgrass, large. Kind of experiment: Test A preemergence. The experiment is classed as in vivo, Digitaria sanguinalis. The note with it: 0 to 100 scale.
Text: as §1, §2

In experiment [11] the test system is pigweed. Kind of experiment: Test A postemergence. The experiment is classed as in vivo, Amaranthus retroflexus.
Text: as §1, §2

The subject of experiment [12] is wheat. The experiment in a line: Test A postemergence. The experiment is classed as in vivo, Triticum aestivum.
Text: as §1, §2

For experiment [13], the system named is barnyardgrass. Kind of experiment: Test A postemergence. The experiment is classed as in vivo, Echinochloa crus-galli. The note with it: Postemergence.
Text: as §1, §2

Experiment [14] concerns morningglory. The experiment in a line: Test A postemergence. The experiment is classed as in vivo, Ipomoea spp.
Text: as §1, §2

Experiment [15] relates to foxtail, giant. Kind of experiment: Test A preemergence. In kind it is in vivo, Setaria faberii. The note with it: 0 to 100 scale.
Text: as §1, §2

Experiment [16] concerns corn. Kind of experiment: Test A preemergence. In kind it is in vivo, Zea mays. The note with it: 0 to 100 scale.
Text: as §1, §2

The mark [17] stands for this setting: Preemergence, 500 g ai/ha, 0 no effect, 100 complete control.
[18] abbreviates: preemergence, 125 g ai/ha, visual injury, approx. 10 days.
Setting [19] is: Postemergence, 500 g ai/ha, visual rating after approx. 10 days, 0 to 100 scale (0 no effect, 100 complete control).
Where [20] appears, read: postemergence, 125 g ai/ha, about 10 days, visual rating on 0 to 100 scale (0 no effect, 100 complete control).
Where [21] appears, read: 125 g ai/ha, 0 to 100 scale, 0 no effect, 100 complete control.
[22] abbreviates: 500 g ai/ha, visual rating after approx. 10 days, 0 to 100 scale (0 no effect, 100 complete control).
Setting [23] is: Preemergence, 1000 g ai/ha, 0 no effect, 100 complete control.
Setting [24] is: Postemergence, 1000 g ai/ha, visual rating after approx. 10 days, 0 to 100 scale (0 no effect, 100 complete control).
Setting [25] is: Postemergence, 125 g ai/ha, 0 to 100 scale, 0 no effect, 100 complete control.

For `Cc1cc(C(=O)NCC(F)(F)C(F)(F)F)nn1Cc1cccc(C(F)(F)F)c1` [Compound 8], the results for the “Velvetleaf plant response rating” value with velvetleaf [1] (setting [17]), with velvetleaf [1] (setting [18]) and in the experiment on velvetleaf [5] (setting [19]) were 0, 0 and 10, respectively. In addition, the “Crabgrass, Large plant response rating” value was 20 in the experiment with crabgrass, large [2] (setting [19]); 10 with crabgrass, large [2] (setting [20]); 0 with crabgrass, large [10] (setting [17]); 0 in the experiment with crabgrass, large [10] (setting [18]). Further, the “Foxtail, Giant plant response rating” value with foxtail, giant [3] (setting [19]) amounted to 20; with foxtail, giant [3] (setting [20]) it was 10; in the experiment on foxtail, giant [15] (setting [17]), 0; in the experiment on foxtail, giant [15] (setting [18]) it was 0. Also, the “Pigweed plant response rating” value with pigweed [4] (setting [17]) was found to be 10; in the experiment on pigweed [4] (setting [18]), 0; with pigweed [11] (setting [19]), 40; with pigweed [11] (setting [20]), 10. Also, the “Barnyardgrass plant response rating” value is 0 with barnyardgrass [6] (setting [17]), 0 in the experiment with barnyardgrass [6] (setting [18]), 0 in the experiment on barnyardgrass [13] (setting [21]) and 10 with barnyardgrass [13] (setting [22]). Further, the “Corn plant response rating” value in the experiment on corn [7] (setting [19]), with corn [7] (setting [20]), in the experiment on corn [16] (setting [17]) and in the experiment with corn [16] (setting [18]) was 0 throughout. Moreover, the “Morningglory plant response rating” value in the experiment on morningglory [8] (setting [17]) turned out to be 0; in the experiment with morningglory [8] (setting [18]) it was 0; with morningglory [14] (setting [19]), 100; with morningglory [14] (setting [20]) it was 80. The “Wheat plant response rating” value in the experiment with wheat [9] (setting [18]), in the experiment with wheat [12] (setting [19]) and with wheat [12] (setting [20]) was 0 throughout.
For the compound `Cc1cc(C(=O)NC2CC2)nn1Cc1ccc(F)c(C(F)(F)F)c1` [Compound 11], the “Velvetleaf plant response rating” value was 20 in the experiment with velvetleaf [1] (setting [17]), 0 in the experiment on velvetleaf [1] (setting [18]), 40 in the experiment on velvetleaf [5] (setting [19]) and 30 in the experiment on velvetleaf [5] (setting [20]). In addition, the “Crabgrass, Large plant response rating” value in the experiment on crabgrass, large [2] (setting [19]) came out at 40; in the experiment with crabgrass, large [2] (setting [20]) it was 20; with crabgrass, large [10] (setting [17]) it was 90; with crabgrass, large [10] (setting [18]), 60. Further, the “Foxtail, Giant plant response rating” value stood at 30 with foxtail, giant [3] (setting [19]); 10 with foxtail, giant [3] (setting [20]); 60 with foxtail, giant [15] (setting [17]); 20 in the experiment with foxtail, giant [15] (setting [18]). Besides, the “Pigweed plant response rating” value in the experiment on pigweed [4] (setting [17]) was 100; with pigweed [4] (setting [18]), 60; with pigweed [11] (setting [19]), 100; in the experiment with pigweed [11] (setting [20]), 60. Besides, the “Barnyardgrass plant response rating” value in the experiment with barnyardgrass [6] (setting [17]) is 50; in the experiment on barnyardgrass [6] (setting [18]), 10; in the experiment with barnyardgrass [13] (setting [21]), 0; in the experiment on barnyardgrass [13] (setting [22]) it was 10. Moreover, the “Corn plant response rating” value in the experiment on corn [7] (setting [19]) stood at 20; in the experiment on corn [7] (setting [20]), 0; with corn [16] (setting [17]), 0; in the experiment on corn [16] (setting [18]) it was 0. Also, the “Morningglory plant response rating” value was 30 in the experiment on morningglory [8] (setting [17]), 10 with morningglory [8] (setting [18]), 80 in the experiment with morningglory [14] (setting [19]) and 70 in the experiment with morningglory [14] (setting [20]). The “Wheat plant response rating” value with wheat [9] (setting [18]), with wheat [12] (setting [19]) and in the experiment with wheat [12] (setting [20]) was 0 throughout.
As to `Cc1cc(C(=O)NC2CC2)nn1Cc1cccc(OC(F)(F)F)c1` [Compound 21], the entries for the “Velvetleaf plant response rating” value in the experiment on velvetleaf [1] (setting [17]), with velvetleaf [5] (setting [19]) and in the experiment with velvetleaf [5] (setting [20]) were 50, 40 and 0, respectively. Moreover, the “Crabgrass, Large plant response rating” value in the experiment on crabgrass, large [2] (setting [19]) is listed as 80; in the experiment on crabgrass, large [2] (setting [20]), 30. The “Foxtail, Giant plant response rating” value came out at 50 in the experiment on foxtail, giant [3] (setting [19]); 20 in the experiment on foxtail, giant [3] (setting [20]); 100 with foxtail, giant [15] (setting [17]). Further, the “Pigweed plant response rating” value with pigweed [4] (setting [17]) was 100; in the experiment on pigweed [11] (setting [19]) it was 100; with pigweed [11] (setting [20]), 90. The “Barnyardgrass plant response rating” value with barnyardgrass [6] (setting [17]) turned out to be 90; with barnyardgrass [6] (setting [18]), 0; in the experiment on barnyardgrass [13] (setting [21]) it was 0; in the experiment on barnyardgrass [13] (setting [22]), 60. The “Corn plant response rating” value with corn [7] (setting [19]) is recorded as 50; in the experiment on corn [7] (setting [20]) it was 10; with corn [16] (setting [18]), 0. For the same compound, the “Morningglory plant response rating” value in the experiment with morningglory [8] (setting [17]) stood at 40; in the experiment with morningglory [8] (setting [18]) it was 0; in the experiment on morningglory [14] (setting [19]), 90; with morningglory [14] (setting [20]), 80. In addition, the figures for the “Wheat plant response rating” value in the experiment with wheat [9] (setting [18]), with wheat [12] (setting [19]) and in the experiment on wheat [12] (setting [20]) were 0, 10 and 0, respectively.
As for `CCc1cc(C(=O)NCCC(F)(F)F)nn1Cc1cccc(C(F)(F)F)c1` [Compound 51], the “Velvetleaf plant response rating” value in the experiment on velvetleaf [1] (setting [23]) is on record as 0; with velvetleaf [5] (setting [24]), 100. The “Crabgrass, Large plant response rating” value is recorded as 30 with crabgrass, large [2] (setting [24]) and 20 with crabgrass, large [10] (setting [23]). For the same compound, the “Foxtail, Giant plant response rating” value was determined as 10 in the experiment with foxtail, giant [3] (setting [24]) and 80 in the experiment on foxtail, giant [15] (setting [23]). Moreover, the “Pigweed plant response rating” value in the experiment on pigweed [4] (setting [23]) was 10; with pigweed [11] (setting [24]), 50. Also, the “Barnyardgrass plant response rating” value amounted to 10 in the experiment with barnyardgrass [6] (setting [23]) and 10 in the experiment on barnyardgrass [13] (1000 g ai/ha, visual rating after approx. 10 days, 0 to 100 scale (0 no effect, 100 complete control)). Also, the “Corn plant response rating” value in the experiment on corn [7] (setting [24]) amounted to 10. Also, the “Morningglory plant response rating” value with morningglory [8] (setting [23]) is recorded as 10; in the experiment on morningglory [14] (setting [24]), 100. The “Wheat plant response rating” value worked out at 0 in the experiment with wheat [9] (setting [23]) and 20 with wheat [12] (setting [24]).
Turning to `O=C(NCC(F)(F)F)c1cc(CCCl)n(Cc2ccnc(C(F)(F)F)c2)n1` [Compound 193], the “Velvetleaf plant response rating” value in the experiment on velvetleaf [5] (setting [25]) stood at 70. In addition, the “Pigweed plant response rating” value with pigweed [11] (setting [25]) was found to be 100. In addition, the “Wheat plant response rating” value in the experiment on wheat [12] (setting [25]) was determined as 0. In addition, the “Morningglory plant response rating” value in the experiment on morningglory [14] (setting [25]) is 80.

Source of the values: US20150105252A1, “SUBSTITUTED PYRAZOLES AS HERBICIDES” (E I DU PONT DE NEMOURS AND COMPANY, priority 2013, published 2015).
